Test [1] addresses T1, full-length beta-Catenin (Uniprot ID P35222) (Homo sapiens, UniProt P35222).
T1 construct: 10 nM full-length beta-Catenin (Uniprot ID P35222)
T1 sequence (P35222 1-781): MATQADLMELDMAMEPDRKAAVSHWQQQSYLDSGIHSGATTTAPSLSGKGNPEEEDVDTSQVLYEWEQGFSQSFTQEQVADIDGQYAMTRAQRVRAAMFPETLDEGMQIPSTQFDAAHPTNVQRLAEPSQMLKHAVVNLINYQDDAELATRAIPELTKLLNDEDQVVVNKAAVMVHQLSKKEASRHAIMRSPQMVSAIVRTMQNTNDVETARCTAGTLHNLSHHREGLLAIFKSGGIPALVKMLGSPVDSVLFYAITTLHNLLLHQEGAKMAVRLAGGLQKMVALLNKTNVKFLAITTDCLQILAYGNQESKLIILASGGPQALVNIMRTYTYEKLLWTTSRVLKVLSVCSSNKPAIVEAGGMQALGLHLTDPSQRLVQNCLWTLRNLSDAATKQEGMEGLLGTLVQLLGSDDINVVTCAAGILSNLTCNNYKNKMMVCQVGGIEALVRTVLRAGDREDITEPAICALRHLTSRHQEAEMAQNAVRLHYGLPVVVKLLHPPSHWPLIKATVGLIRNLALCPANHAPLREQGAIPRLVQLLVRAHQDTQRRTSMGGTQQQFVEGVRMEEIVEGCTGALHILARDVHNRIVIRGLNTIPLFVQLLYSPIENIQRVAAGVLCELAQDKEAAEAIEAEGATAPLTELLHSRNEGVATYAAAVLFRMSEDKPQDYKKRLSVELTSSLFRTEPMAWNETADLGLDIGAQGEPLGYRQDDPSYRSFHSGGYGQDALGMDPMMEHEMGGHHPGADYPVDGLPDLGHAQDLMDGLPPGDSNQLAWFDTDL
Nature of the test: Fluorescence polarization IC50 (beta-catenin / 5FAM-TCF4 10-53 competition). It is filed as binding. The conditions noted are these: fluorescence polarization; read-out: beta-Catenin FP IC50. In general terms: Polarisation of emitted light reports the rotation of a fluorescent probe.

Test [2] addresses T2, beta-catenin/TCF4 engagement (Homo sapiens, UniProt P35222).
T2 construct: expressed in transfected cells; host or cells: HEK293
T2 sequence (P35222 1-781): T1 sequence (P35222 1-781)
The experiment in a line: Nano-BRET target engagement assay (B-cat-Halo & TCF4-Luc in HEK293 cells). The conditions noted are these: absolute IC50; read-out: NanoBRET Abs IC50. It is filed as cell-based. (In general: In BRET a luciferase serves as donor, and the signal depends on an acceptor being close.)

Consider `CC(=O)N1CCC[C@]12CC=CCCCC1(CCCC=CCCCOC(=O)N3CC[C@@](C(=O)N[C@@H](Cc4ccsc4)C(=O)N[C@@H](Cc4csc5ccccc45)C(=O)N[C@@H](CCC(N)=O)C(N)=O)(C3)NC(=O)[C@H](CCCN3CCC(F)(F)CC3)NC(=O)[C@H](Cc3ccccc3)NC(=O)[C@H](C)NC(=O)[C@H](C)NC(=O)[C@H](CC(=O)O)NC(=O)[C@H](CC(=O)O)NC1=O)NC(=O)[C@H](CC(C)(C)C)NC(=O)[C@H](CC(=O)O)NC2=O` (stereo partly drawn) [I-1486, Ac-PL3-Asp-Npg-B5-Asp-Asp-Ala-Ala-Phe-F2PipNva-PyrS2-3Thi-BztA-Gln-NH2], for which the 50% inhibitory concentration (IC50) – broadly, the concentration that inhibits the measured activity by half – in test [1] came to 0.005 µM; in test [2], 17.9 µM.

Take `CC(=O)N1CCC[C@]12CC=CCCCC1(CCCC=CCCCOC(=O)N3CC[C@@](C(=O)N[C@@H](Cc4ccsc4)C(=O)N[C@@H](Cc4csc5ccccc45)C(=O)N[C@@H](CCC(N)=O)C(N)=O)(C3)NC(=O)[C@H](CC(=O)N3CCOCC3)NC(=O)[C@H](Cc3ccccc3)NC(=O)[C@H](C)NC(=O)[C@H](C)NC(=O)[C@H](CC(=O)O)NC(=O)[C@H](CC(=O)O)NC1=O)NC(=O)[C@H](CC(C)(C)C)NC(=O)[C@H](CC(=O)O)NC2=O` (stereo partly drawn) [I-1487, Ac-PL3-Asp-Npg-B5-Asp-Asp-Ala-Ala-Phe-MorphAsn-PyrS2-3Thi-BztA-Gln-NH2]: the IC50 stood at 0.007 µM in test [1] and 21.5 µM in test [2].

Take `CC(=O)N1CCC[C@]12CC=CCCCC1(CCCC=CCCCOC(=O)N3CC[C@@](C(=O)N[C@@H](Cc4ccsc4)C(=O)N[C@@H](Cc4csc5ccccc45)C(=O)N[C@@H](CCC(N)=O)C(N)=O)(C3)NC(=O)[C@H](CC(=O)N3CCN(C)CC3)NC(=O)[C@H](Cc3ccccc3)NC(=O)[C@H](C)NC(=O)[C@H](C)NC(=O)[C@H](CC(=O)O)NC(=O)[C@H](CC(=O)O)NC1=O)NC(=O)[C@H](CC(C)(C)C)NC(=O)[C@H](CC(=O)O)NC2=O` (stereo partly drawn) [I-1488, Ac-PL3-Asp-Npg-B5-Asp-Asp-Ala-Ala-Phe-MePpzAsn-PyrS2-3Thi-BztA-Gln-NH2]: the figures for the IC50 in test [1] and in test [2] were 0.006 µM and 30.3 µM, respectively.

On to `CC(=O)N1CCC[C@]12CC=CCCCC1(CCCC=CCCCOC(=O)N3CC[C@@](C(=O)N[C@@H](Cc4ccsc4)C(=O)N[C@@H](Cc4csc5ccccc45)C(=O)N[C@@H](CC(N)=O)C(N)=O)(C3)NC(=O)[C@H](CC(C)C)NC(=O)[C@H](Cc3ccccc3)NC(=O)[C@H](C)NC(=O)[C@H](C)NC(=O)[C@H](CC(=O)O)NC(=O)[C@H](CC(=O)O)NC1=O)NC(=O)[C@H](CC(C)(C)C)NC(=O)[C@H](CC(=O)O)NC2=O` (stereo partly drawn) [I-1492, Ac-PL3-Asp-Npg-B5-Asp-Asp-Ala-Ala-Phe-Leu-PyrS2-3Thi-BztA-Asn-NH2], for which the half-inhibitory concentration (IC50) in test [1] was 0.005 µM; in test [2] it was 7.3 µM.

`CC(=O)N1CCC[C@]12CC=CCCCC1(CCCC=CCCCOC(=O)N3CC[C@@](C(=O)N[C@@H](Cc4ccsc4)C(=O)N[C@@H](Cc4csc5ccccc45)C(=O)N[C@@H](CO)C(N)=O)(C3)NC(=O)[C@H](CC(C)C)NC(=O)[C@H](Cc3ccccc3)NC(=O)[C@H](C)NC(=O)[C@H](C)NC(=O)[C@H](CC(=O)O)NC(=O)[C@H](CC(=O)O)NC1=O)NC(=O)[C@H](CC(C)(C)C)NC(=O)[C@H](CC(=O)O)NC2=O` (stereo partly drawn) [I-1493, Ac-PL3-Asp-Npg-B5-Asp-Asp-Ala-Ala-Phe-Leu-PyrS2-3Thi-BztA-Ser-NH2]: the values for the IC50 in test [1] and in test [2] were 0.01 µM and 4.9 µM, respectively.

On to `CC(=O)N1CCC[C@]12CC=CCCCC1(CCCC=CCCCOC(=O)N3CC[C@@](C(=O)N[C@@H](Cc4ccsc4)C(=O)N[C@@H](Cc4csc5ccccc45)C(=O)N[C@H](C(N)=O)[C@@H](C)O)(C3)NC(=O)[C@H](CC(C)C)NC(=O)[C@H](Cc3ccccc3)NC(=O)[C@H](C)NC(=O)[C@H](C)NC(=O)[C@H](CC(=O)O)NC(=O)[C@H](CC(=O)O)NC1=O)NC(=O)[C@H](CC(C)(C)C)NC(=O)[C@H](CC(=O)O)NC2=O` (stereo partly drawn) [I-1494, Ac-PL3-Asp-Npg-B5-Asp-Asp-Ala-Ala-Phe-Leu-PyrS2-3Thi-BztA-Thr-NH2], for which the IC50 in test [1] was found to be 0.005 µM; in test [2], 14.7 µM.

Regarding `CC(=O)N1CCC[C@]12CC=CCCCC1(CCCC=CCCCOC(=O)N3CC[C@@](C(=O)N[C@@H](Cc4ccsc4)C(=O)N[C@@H](Cc4csc5ccccc45)C(=O)N[C@H](C(N)=O)C(C)C)(C3)NC(=O)[C@H](CC(C)C)NC(=O)[C@H](Cc3ccccc3)NC(=O)[C@H](C)NC(=O)[C@H](C)NC(=O)[C@H](CC(=O)O)NC(=O)[C@H](CC(=O)O)NC1=O)NC(=O)[C@H](CC(C)(C)C)NC(=O)[C@H](CC(=O)O)NC2=O` (stereo partly drawn) [I-1495, Ac-PL3-Asp-Npg-B5-Asp-Asp-Ala-Ala-Phe-Leu-PyrS2-3Thi-BztA-Val-NH2], the IC50 is 0.024 µM in test [1] and 23.9 µM in test [2].

Take `CC(=O)N1CCC[C@]12CC=CCCCC1(CCCC=CCCCOC(=O)N3CC[C@@](C(=O)N[C@@H](Cc4ccsc4)C(=O)N[C@@H](Cc4csc5ccccc45)C(=O)N[C@@H](Cc4ccccc4)C(N)=O)(C3)NC(=O)[C@H](CC(C)C)NC(=O)[C@H](Cc3ccccc3)NC(=O)[C@H](C)NC(=O)[C@H](C)NC(=O)[C@H](CC(=O)O)NC(=O)[C@H](CC(=O)O)NC1=O)NC(=O)[C@H](CC(C)(C)C)NC(=O)[C@H](CC(=O)O)NC2=O` (stereo partly drawn) [I-1496, Ac-PL3-Asp-Npg-B5-Asp-Asp-Ala-Ala-Phe-Leu-PyrS2-3Thi-BztA-Phe-NH2]: the figures for the 50% inhibitory concentration (IC50) in test [1] and in test [2] were 0.051 µM and 9.4 µM, respectively.

With `CC(=O)N1CCC[C@]12CC=CCCCC1(CCCC=CCCCOC(=O)N3CC[C@@](C(=O)N[C@@H](Cc4ccsc4)C(=O)N[C@@H](Cc4csc5ccccc45)C(=O)N[C@@H](Cc4c[nH]c5ccccc45)C(N)=O)(C3)NC(=O)[C@H](CC(C)C)NC(=O)[C@H](Cc3ccccc3)NC(=O)[C@H](C)NC(=O)[C@H](C)NC(=O)[C@H](CC(=O)O)NC(=O)[C@H](CC(=O)O)NC1=O)NC(=O)[C@H](CC(C)(C)C)NC(=O)[C@H](CC(=O)O)NC2=O` (stereo partly drawn) [I-1497, Ac-PL3-Asp-Npg-B5-Asp-Asp-Ala-Ala-Phe-Leu-PyrS2-3Thi-BztA-Trp-NH2], the IC50 in test [1] is 0.05 µM; in test [2], 11.4 µM.

Consider `CC(=O)N1CCC[C@]12CC=CCCCC1(CCCC=CCCCOC(=O)N3CC[C@@](C(=O)N[C@@H](Cc4ccsc4)C(=O)N[C@@H](Cc4csc5ccccc45)C(=O)N[C@@H](CCO)C(N)=O)(C3)NC(=O)[C@H](CC(C)C)NC(=O)[C@H](Cc3ccccc3)NC(=O)[C@H](C)NC(=O)[C@H](C)NC(=O)[C@H](CC(=O)O)NC(=O)[C@H](CC(=O)O)NC1=O)NC(=O)[C@H](CC(C)(C)C)NC(=O)[C@H](CC(=O)O)NC2=O` (stereo partly drawn) [I-1499, Ac-PL3-Asp-Npg-B5-Asp-Asp-Ala-Ala-Phe-Leu-PyrS2-3Thi-BztA-Hse-NH2], for which the results for the IC50 in test [1] and in test [2] were 0.023 µM and 6.4 µM, respectively.

Consider `CC(=O)N1CCC[C@]12CC=CCCCC1(CCCC=CCCCOC(=O)N3CC[C@@](C(=O)N[C@@H](Cc4ccsc4)C(=O)N[C@@H](Cc4csc5ccccc45)C(=O)N[C@H](CCC(N)=O)C(N)=O)(C3)NC(=O)[C@H](CC(C)C)NC(=O)[C@H](Cc3ccccc3)NC(=O)[C@H](C)NC(=O)[C@H](C)NC(=O)[C@H](CC(=O)O)NC(=O)[C@H](CC(=O)O)NC1=O)NC(=O)[C@H](CC(C)(C)C)NC(=O)[C@H](CC(=O)O)NC2=O` (stereo partly drawn) [I-1500, Ac-PL3-Asp-Npg-B5-Asp-Asp-Ala-Ala-Phe-Leu-PyrS2-3Thi-BztA-dGln-NH2], for which the 50% inhibitory concentration (IC50) in test [1] came out at 0.022 µM; in test [2], 4.7 µM.

Turning to `CC(=O)N1CCC[C@]12CC=CCCCC1(CCCC=CCCCOC(=O)N3CC[C@@](C(=O)N[C@@H](Cc4ccsc4)C(=O)N[C@@H](Cc4csc5ccccc45)C(=O)N[C@@H](CCC(N)=O)C(N)=O)(C3)NC(=O)[C@H](CC(C)C)NC(=O)[C@H](Cc3ccccc3)NC(=O)[C@H](CCCN3CCOCC3)NC(=O)[C@H](C)NC(=O)[C@H](CC(=O)O)NC(=O)[C@H](CC(=O)O)NC1=O)NC(=O)[C@H](CC(C)(C)C)NC(=O)[C@H](CC(=O)O)NC2=O` (stereo partly drawn) [I-1501, Ac-PL3-Asp-Npg-B5-Asp-Asp-Ala-MorphNva-Phe-Leu-PyrS2-3Thi-BztA-Gln-NH2], the IC50 was 0.046 µM in test [1] and over 20 µM in test [2].

For the molecule `CC(=O)N1CCC[C@]12CC=CCCCC1(CCCC=CCCCOC(=O)N3CC[C@@](C(=O)N[C@@H](Cc4ccsc4)C(=O)N[C@@H](Cc4csc5ccccc45)C(=O)N[C@@H](CCC(N)=O)C(N)=O)(C3)NC(=O)[C@H](CC(C)C)NC(=O)[C@H](Cc3ccccc3)NC(=O)[C@H](CCCN3CCC(F)(F)CC3)NC(=O)[C@H](C)NC(=O)[C@H](CC(=O)O)NC(=O)[C@H](CC(=O)O)NC1=O)NC(=O)[C@H](CC(C)(C)C)NC(=O)[C@H](CC(=O)O)NC2=O` (stereo partly drawn) [I-1502, Ac-PL3-Asp-Npg-B5-Asp-Asp-Ala-F2PipNva-Phe-Leu-PyrS2-3Thi-BztA-Gln-NH2], the IC50 in test [1] is 0.034 µM; in test [2], over 20 µM.

These data come from US20240116985A1, “STAPLED PEPTIDES AND METHODS THEREOF” (priority 2020, published 2024).
